Data set [1] is described as follows: Average score of NAC and NAL depletion and prediction of skin allergenicity, fluorescence method. The note with it: for Average score: test substance solution 1 mmol/L. As to the method:
(§1) The average value (Average Score) of NAC and NAL depletion percents is calculated. In the resultant value, the second decimal place is rounded off.
(§2) Average value (Average Score) of NAC and NAL depletion percents=(NAC depletion percent+NAL depletion percent)/2
(§3) The depletion percent of at least one of NAC or NAL or the average score of the depletion percents of NAC and NAL is calculated, and whether or not the test substances are “allergenic substances” or “non-allergenic substances” is determined:
(§4) (1) in a case of performing evaluation based on the average value of the depletion percent of NAC and the depletion percent of NAL,
(§5) In the following Tables, S represents as being an allergenic substance and NS represents as being a non-allergenic substance.

Data set [2] is described as follows: NAC depletion percent, HPLC-fluorescence detection. As to the method:
(§6) 1) To a 50 mL vessel, 11.6 mg (±0.1 mg) of NAC is weighed; to this, a 25 mL measuring pipet is used to add 20 mL of 100 mmol/L phosphate buffer (pH: 8.0); and the content is gently stirred using a test tube mixer to achieve dissolution (2 mmol/L). 2) To a 500 mL vessel, 149.5 mL of this buffer is added using a 50 mL measuring pipet; to this, 0.5 mL of the above-described 2 mmol/L NAC solution is added; and the content is mixed by inversion to achieve 300-fold dilution (6.667 μmon).
(§7) The test substance undiluted solution is defined as an “undiluted solution”, and used. Incidentally, this “undiluted solution” may be appropriately diluted to, for example, 1/10, 1/100, or 1/1000, using an appropriate solvent, and the resultant solution may be used.
(§8) Subsequently, the solution having the maximum dissolution concentration is defined as an “undiluted solution”, and tested. Incidentally, this “undiluted solution” may be appropriately diluted to, for example, 1/10, 1/100, or 1/1000, using an appropriate solvent, and the resultant solution may be used.
(§9) The test substance is prepared at 1 mmol/L in any of solvents that are water, acetonitrile, acetone, and a 5 mass % dimethyl sulfoxide (DMSO)/acetonitrile solution and used as a test substance solution. As the solvent, a solvent in which the test substance dissolves at 1 mmol/L is used; when the test substance is soluble in a plurality of solvents, the solvent is selected in the following order of decreasing precedence: water, acetonitrile, acetone, and 5 mass % DMSO/acetonitrile.
(§10) Test substance solutions are prepared on a 96-well plate (U96 PP-0.5 ML NATURAL, Thermo Fisher Scientific Inc. (NUNC)) mainly using a 12-channel pipette, and a reagent is added in accordance with the following formula.
(§11) Nucleophilic reagent (NAC and NAL): 150 μL
(§12) Test substance solution: 50 μL
(§13) The plate is tightly sealed using a plate sealing (Resistant embossed seal, SHIMADZU GLC Ltd.), and stirred using a plate shaker (Titramax 100, Heidolph Instruments GmbH & CO. KG). The plate is subjected to spinning down using a centrifuge, and then to incubation at 25° C., for 24 hours, in a light-shielded state.
(§14) After the incubation for 24 hours, the plate sealing is removed; to each sample, 50 µL of the reaction stopping solution is added to stop the reaction.
(§15) The HPLC measurement conditions for the nucleophilic reagents are as follows.
(§16) From the average values (each, n=3) of peak areas of the post-reaction unreacted NAC or NAL and the blank-test (after performing the reaction step without addition of the test substances) NAC or NAL, the following formula is used to calculate the depletion percent of NAC or NAL.
(§17) NAC depletion percent (% depletion)=[1−(Average value of peak areas of post-reaction unreacted NAC/Average value of peak areas of blank-test (after performing the reaction step without addition of the test substances) NAC)]×100
(§18) The average value of peak areas of the post-reaction unreacted NAC is the average value of areas obtained by measuring three times post-reaction unreacted NAC. The average value of peak areas of blank-test (after performing the reaction step without addition of the test substances) NAC is the average value of areas obtained by measuring three times blank-test (after performing the reaction step without addition of the test substances) NAC.
(§19) The reactions were each performed on a 96-well plate, and the number of samples of each case was set to n=3. In addition, as controls, reaction solutions including the solvent alone were prepared. The reaction solutions were prepared so as to have a NAC or NAL concentration of 5 μmon. To the reaction solutions after the lapse of 24 hours, a trifluoroacetic acid (TFA) aqueous solution was added such that the final concentration became 0.5% (v/v) TFA. Subsequently, HPLC was performed for measurements by two detection methods that were light absorption detection using a photodiode array (PDA) detector, and fluorescence detection using a fluorescence detector.

A short description of data set [3]: NAL depletion percent, HPLC-UV detection (281 nm). The note with it: Reference (UV method). Here is the method: (§20) 1) To a 50 mL vessel, 12.6 mg (±0.1 mg) of NAL is weighed; to this, a 25 mL measuring pipet is used to add 20 mL of 100 mmol/L phosphate buffer (pH: 10.2); and the content is gently stirred using a test tube mixture to achieve dissolution (2 mmol/L NAL solution). 2) To a 500 mL vessel, 149.5 mL of this buffer is added using a 50 mL measuring pipet; to this, 0.5 mL of the above-described 2 mmol/L NAL solution is added; and the content is mixed by inversion to achieve 300-fold dilution (6.667 μmol/L).
as §7, §8, §9, §10, §11, §12, §13, §14, §15, §16
(§21) NAL depletion percent (% depletion)=[1−(Average value of peak areas of post-reaction unreacted NAL/Average value of peak areas of blank-test (after performing the reaction step without addition of the test substances) NAL)]×100
(§22) The average value of peak areas of post-reaction unreacted NAL is the average value of areas obtained by measuring three times post-reaction unreacted NAL. The average value of peak areas of blank-test (after performing the reaction step without addition of the test substances) NAL is the average value of areas obtained by measuring three times blank-test (after performing the reaction step without addition of the test substances) NAL.
as §19

A short description of data set [4]: NAL depletion percent, HPLC-fluorescence detection. Here is the method: as §20, §7, §8, §9, §10, §11, §12, §13, §14, §15, §16, §21, §22, §19
A short description of data set [5]: Average score of NAC and NAL depletion and prediction of skin allergenicity, UV method. As to conditions: Reference (UV method); for Average score: test substance solution 1 mmol/L. Here is the method: as §1, §2, §3, §4, §5
Data set [6] is described as follows: NAC depletion percent, HPLC-UV detection (281 nm). The note with it: Reference (UV method). Here is the method:
as §6, §7, §8, §9, §10, §11, §12, §13, §14, §15, §16, §17, §18, §19

The mark [7] stands for this setting: Fluorescence method, skin allergenicity prediction.
Where [8] appears, read: Fluorescence method, non-allergenic substance.
Setting [9] is: single substance, fluorescence method.
Where [10] appears, read: single substance, test substance solution 1 mmol/L, fluorescence method.
Setting [11] is: single substance, test substance solution 1 mmol/L.
The mark [12] stands for this setting: single substance, fluorescence method, criterion average score […].
The mark [13] stands for this setting: single substance, criterion average score […].

Results on nine compounds are retold here after patent US20210181109A1 (FUJIFILM Corporation, priority 2018, published 2021).

Structures are written as SMILES.

On to `CCCCBr` [1-Bromobutane], for which the Prediction result in data set [1] (setting [7]) and in data set [5] (skin allergenicity prediction) was “NS (NS represents as being a non-allergenic substance)” throughout. In addition, the figures for the “NAC depletion (%)” value in data set [2] (setting [8]) and in data set [6] (non-allergenic substance) were 0.0% and 0.1%, respectively. The “NAL depletion (%)” value amounted to 2.4% in data set [3] (non-allergenic substance) and 0.0% in data set [4] (setting [8]).

Turning to `CC(=O)C(C)=O` [2,3-Butanedione], the Average score is reported as 31.4% in data set [1] (setting [9]) and 33.4% in data set [5] (single substance). For the same compound, the “NAC depletion (%)” value in data set [2] (setting [10]) was 45.2%; in data set [6] (setting [11]), 41.2%. In addition, the “NAL depletion (%)” value in data set [3] (setting [11]) is reported as 25.5%; in data set [4] (setting [10]), 17.7%.

As to `O=[N+]([O-])c1ccc(Cl)c([N+](=O)[O-])c1` [2,4-Dinitrochlorobenzene], the Prediction result in data set [1] (setting [12]) and in data set [5] (setting [13]) was “S (S represents as being an allergenic substance)” throughout. The Average score in data set [1] (setting [9]) was 45.8%; in data set [5] (single substance), 47.7%. Further, the “NAC depletion (%)” value in data set [2] (setting [10]) is given as 91.6%; in data set [6] (setting [11]), 89.3%. In addition, the “NAL depletion (%)” value in data set [3] (setting [11]) is listed as 6.1%; in data set [4] (setting [10]), 0.0%.

As to `CC(=O)C1CCCCC1=O` (stereo not shown) [2-Acetylcyclohexanone], the Prediction result in data set [1] (setting [7]) and in data set [5] (skin allergenicity prediction) was “NS (NS represents as being a non-allergenic substance)” in each case. In addition, the “NAC depletion (%)” value in data set [2] (setting [8]) was 3.5%; in data set [6] (non-allergenic substance) it was 1.3%. The “NAL depletion (%)” value in data set [3] (non-allergenic substance) is given as 0.3%; in data set [4] (setting [8]), 0.0%.

On to `C=C(C)C(=O)OCC(C)O` (stereo not shown) [2-Hydroxypropyl methacrylate], for which the Prediction result in data set [1] (setting [7]) and in data set [5] (skin allergenicity prediction) was “NS (NS represents as being a non-allergenic substance)” each time. Further, the entries for the “NAC depletion (%)” value in data set [2] (setting [8]) and in data set [6] (non-allergenic substance) were 2.0% and 2.4%, respectively. Besides, the results for the “NAL depletion (%)” value in data set [3] (non-allergenic substance) and in data set [4] (setting [8]) were 2.2% and 0.2%, respectively.

As to `O=C(O)c1ccc(O)cc1` [4-Hydroxybenzoic acid], the Prediction result in data set [1] (setting [7]) and in data set [5] (skin allergenicity prediction) was “NS (NS represents as being a non-allergenic substance)” throughout. Besides, the “NAC depletion (%)” value in data set [2] (setting [8]) stood at 2.9%; in data set [6] (non-allergenic substance) it was 0.0%. The “NAL depletion (%)” value in data set [3] (non-allergenic substance) is on record as −1.4%; in data set [4] (setting [8]), 0.1%.

As for `COc1ccc(C(C)=O)cc1` [4′-Methoxyacetophenone], the Prediction result in data set [1] (setting [7]) and in data set [5] (skin allergenicity prediction) was “NS (NS represents as being a non-allergenic substance)” throughout. In addition, the “NAC depletion (%)” value in data set [2] (setting [8]) is recorded as 1.2%; in data set [6] (non-allergenic substance), 3.3%. Also, the “NAL depletion (%)” value in data set [3] (non-allergenic substance) turned out to be 3.3%; in data set [4] (setting [8]) it was 0.0%.

Consider `CC(=O)C(=O)CC(C)C` [5-Methyl-2,3-hexanedione], for which the Prediction result in data set [1] (setting [12]) and in data set [5] (setting [13]) was “S (S represents as being an allergenic substance)” in each case. The values for the Average score in data set [1] (setting [9]) and in data set [5] (single substance) were 20.4% and 20.6%, respectively. Further, the “NAC depletion (%)” value came to 14.8% in data set [2] (setting [10]) and 6.4% in data set [6] (setting [11]). Further, the “NAL depletion (%)” value in data set [3] (setting [11]) is 34.8%; in data set [4] (setting [10]), 26.1%.

As for `Cc1ccc2oc(=O)ccc2c1` [6-Methylcoumarin], the Prediction result in data set [1] (setting [7]) and in data set [5] (skin allergenicity prediction) was “NS (NS represents as being a non-allergenic substance)” in each case. For the same compound, the “NAC depletion (%)” value turned out to be 1.3% in data set [2] (setting [8]) and 0.0% in data set [6] (non-allergenic substance). The “NAL depletion (%)” value came out at 1.0% in data set [3] (non-allergenic substance) and 0.1% in data set [4] (setting [8]).
